ChEMBL document CHEMBL3286345, “Synthesis and biological activity of new arenediyne-linked isoxazolidines” (2014)
The source made the active and inactive calls. The calls are words filed in the database; no cut-off is given here.

Assays:
HT-29 [1] = assay: Antiproliferative activity against human HT-29 cells at 1 to 100 uM after 24 to 72 hrs by MTT assay; type: functional, cell-based
HepG2 [2] = assay: Antiproliferative activity against human HepG2 cells at 1 to 100 uM after 24 to 72 hrs by MTT assay; type: functional, cell-based
SH-SY5Y [3] = assay: Antiproliferative activity against human SH-SY5Y cells at 1 to 100 uM after 24 to 72 hrs by MTT assay; type: functional, cell-based
HT-29 [4] = assay: Cytotoxicity against human HT-29 cells at 1 to 100 uM after 24 to 72 hrs by LDH release assay; type: functional, cell-based
HepG2 [5] = assay: Cytotoxicity against human HepG2 cells at 1 to 100 uM after 24 to 72 hrs by LDH release assay; type: functional, cell-based
SH-SY5Y [6] = assay: Cytotoxicity against human SH-SY5Y cells at 1 to 100 uM after 24 to 72 hrs by LDH release assay; type: functional, cell-based
HepG2 [7] = assay: Antiproliferative activity against human HepG2 cells at 1 to 100 uM after 24 to 72 hrs by cell counting assay; type: functional, cell-based
HT-29 [8] = assay: Antiproliferative activity against human HT-29 cells at 1 to 100 uM after 24 to 72 hrs by cell counting assay; type: functional, cell-based
SH-SY5Y [9] = assay: Antiproliferative activity against human SH-SY5Y cells at 1 to 100 uM after 24 to 72 hrs by cell counting assay; type: functional, cell-based
HT-29 [10] = assay: Antiproliferative activity against human HT-29 cells at 50 to 100 uM after 48 to 72 hrs by MTT assay; type: functional, cell-based
HepG2 [11] = assay: Antiproliferative activity against human HepG2 cells at 100 uM after 72 hrs by MTT assay; type: functional, cell-based
SH-SY5Y [12] = assay: Antiproliferative activity against human SH-SY5Y cells at 100 uM after 72 hrs by MTT assay; type: functional, cell-based
HT-29 [13] = assay: Antiproliferative activity against human HT-29 cells at 1 to 100 uM by MTT assay; type: functional, cell-based; details: TDE = time-dependent effect
HepG2 [14] = assay: Antiproliferative activity against human HepG2 cells at 1 to 100 uM by MTT assay; type: functional, cell-based; details: TDE = time-dependent effect
SH-SY5Y [15] = assay: Antiproliferative activity against human SH-SY5Y cells at 1 to 100 uM by MTT assay; type: functional, cell-based; details: TDE = time-dependent effect
HT-29 [16] = assay: Antiproliferative activity against human HT-29 cells after 24 to 72 hrs by MTT assay; type: functional, cell-based
HepG2 [17] = assay: Antiproliferative activity against human HepG2 cells after 24 to 72 hrs by MTT assay; type: functional, cell-based
SH-SY5Y [18] = assay: Antiproliferative activity against human SH-SY5Y cells after 24 to 72 hrs by MTT assay; type: functional, cell-based
HT-29 [19] = assay: Cytotoxicity against human HT-29 cells at 50 to 100 uM after 24 to 72 hrs by LDH release assay; type: functional, cell-based
HepG2 [20] = assay: Cytotoxicity against human HepG2 cells at 50 to 100 uM after 24 to 72 hrs by LDH release assay; type: functional, cell-based
SH-SY5Y [21] = assay: Cytotoxicity against human SH-SY5Y cells at 50 to 100 uM after 24 to 72 hrs by LDH release assay; type: functional, cell-based
HT-29 [22] = assay: Cytotoxicity against human HT-29 cells assessed as cell death at 1 to 100 uM after 24 to 72 hrs by trypan blue dye exclusion assay; type: functional, cell-based
HepG2 [23] = assay: Cytotoxicity against human HepG2 cells assessed as cell death at 1 to 100 uM after 24 to 72 hrs by trypan blue dye exclusion assay; type: functional, cell-based
SH-SY5Y [24] = assay: Cytotoxicity against human SH-SY5Y cells assessed as cell death at 1 to 100 uM after 24 to 72 hrs by trypan blue dye exclusion assay; type: functional, cell-based
HT-29 [25] = assay: Antiproliferative activity against human HT-29 cells at 100 uM after 72 hrs by MTT assay; type: functional
HT-29 [26] = assay: Antiproliferative activity against human HT-29 cells at 100 uM after 48 hrs by MTT assay; type: functional, cell-based
HT-29 [27] = assay: Antiproliferative activity against human HT-29 cells at 50 uM after 48 to 72 hrs by MTT assay; type: functional, cell-based

Row | SMILES | Activity (HT-29 [1]) | Activity (HepG2 [2]) | Activity (SH-SY5Y [3]) | Activity (HT-29 [4]) | Activity (HepG2 [5]) | Activity (SH-SY5Y [6]) | Activity (HepG2 [7]) | Activity (HT-29 [8]) | Activity (SH-SY5Y [9]) | Activity (HT-29 [13]) | Activity (HepG2 [14]) | Activity (SH-SY5Y [15]) | Activity (HT-29 [16]) | Activity (HepG2 [17]) | Activity (SH-SY5Y [18]) | Activity (HT-29 [19]) | Activity (HepG2 [20]) | Activity (SH-SY5Y [21]) | Activity (HT-29 [22]) | Activity (HepG2 [23]) | also measured
1 | CN1O[C@@H](OCC#Cc2ccccc2C#CCO)C[C@@H]1CO[Si](c1ccccc1)(c1ccccc1)C(C)(C)C (racemic) | inactive | inactive | inactive | inactive | inactive | inactive | inactive | inactive | inactive |  |  |  |  |  |  |  |  |  |  |  | 
2 | CN1O[C@H](OCC#Cc2ccccc2C#CCO)C[C@@H]1CO (racemic) |  |  |  |  |  |  | Active | Active | Active | tde | tde | tde | Dose-dependent effect | Dose-dependent effect | Dose-dependent effect | Active | Active | Active | Active | Active | Activity (HT-29 [10]): Active; Activity (HepG2 [11]): Active; Activity (SH-SY5Y [12]): Active; Activity (SH-SY5Y [24]): Active
3 | CN1O[C@@H]2COCC#Cc3ccccc3C#CCOC[C@@H]2[C@@H]1CO[Si](c1ccccc1)(c1ccccc1)C(C)(C)C (racemic) |  |  |  |  |  |  | Active | Active | Active | tde | tde | tde | Dose-dependent effect | Dose-dependent effect | Dose-dependent effect | Active | Active | Active | Active | Active | Activity (HT-29 [25]): 63%; Activity (HT-29 [26]): Active; Activity (HT-29 [27]): Active; Activity (SH-SY5Y [24]): Active
4 | CN1O[C@H](OCC#Cc2ccccc2C#CCO)C[C@@H]1CO[Si](c1ccccc1)(c1ccccc1)C(C)(C)C (racemic) | inactive | inactive | inactive | inactive | inactive | inactive | inactive | inactive | inactive |  |  |  |  |  |  |  |  |  |  |  | 
